Converted amounts (≈) assume the structure as drawn. “Also recorded” adds a separate entry of the source. Read-outs that look alike come from different tables or passages of the source.
How the values were obtained:
[1] = tested on: Mycobacterium sp. 607; experiment: Antimicrobial spectrum (MIC); format: cell-based; conditions: 3% glycerol nutrient agar (acid-fast bacteria), 37° C., 24 or 48 hours
[2] = tested on: Escherichia coli; experiment: Antimicrobial spectrum (MIC); format: cell-based; conditions: 1% glucose nutrient agar, 37° C., 24 or 48 hours
[3] = tested on: Shigella dysenteriae Shiga; experiment: microbe, parasite or virus in culture; format: cell-based
[4] = tested on: Mycobacterium phlei; experiment: Antimicrobial spectrum (MIC); format: cell-based; conditions: 3% glycerol nutrient agar (acid-fast bacteria), 37° C., 24 or 48 hours
[5] = tested on: Mycobacterium avium; experiment: Antimicrobial spectrum (MIC); format: cell-based; conditions: 3% glycerol nutrient agar (acid-fast bacteria), 37° C., 24 or 48 hours
[6] = tested on: Salina lutea; experiment: Antimicrobial spectrum (MIC); format: cell-based
[7] = tested on: Staphylococcus salivarius; experiment: Antimicrobial spectrum (MIC); format: cell-based; conditions: 1% glucose nutrient agar, 37° C., 24 or 48 hours
[8] = tested on: Serratia marcescens; experiment: Antimicrobial spectrum (MIC); format: cell-based; conditions: 1% glucose nutrient agar, 37° C., 24 or 48 hours
[9] = tested on: Pseudomonas aeruginosa; experiment: Antimicrobial spectrum (MIC); format: cell-based; conditions: 1% glucose nutrient agar, 37° C., 24 or 48 hours
[10] = tested on: Streptococcus pyogenes Cook; experiment: Antimicrobial spectrum (MIC); format: cell-based; conditions: blood agar, 37° C., 24 or 48 hours
[11] = tested on: bacillus cereus; experiment: Antimicrobial spectrum (MIC); format: cell-based; conditions: 1% glucose nutrient agar, 37° C., 24 or 48 hours
[12] = tested on: transplantable tumors; experiment: Activity against transplantable tumors; conditions: in vivo
[13] = tested on: Streptococcus faecalis; experiment: Antimicrobial spectrum (MIC); format: cell-based; conditions: 1% glucose nutrient agar, 37° C., 24 or 48 hours
[14] = tested on: Staphylococcus aureus 209P; experiment: Antimicrobial spectrum (MIC); format: cell-based; conditions: 1% glucose nutrient agar, 37° C., 24 or 48 hours
[15] = tested on: Klebsiella pneumoniae; experiment: Antimicrobial spectrum (MIC); format: cell-based; conditions: 1% glucose nutrient agar, 37° C., 24 or 48 hours
[16] = tested on: Corynebacterium dephtheriae; experiment: Antimicrobial spectrum (MIC); format: cell-based
[17] = Biological activity compared between saframycins
[18] = tested on: Salmonella typhimurium; experiment: Antimicrobial spectrum (MIC); format: cell-based; conditions: 1% glucose nutrient agar, 37° C., 24 or 48 hours
[19] = tested on: Bacillus subtilis PCI219; experiment: Antimicrobial spectrum (MIC); format: cell-based; conditions: 1% glucose nutrient agar, 37° C., 24 or 48 hours
[20] = tested on: Nocardia asteroides; experiment: Antimicrobial spectrum (MIC); format: cell-based; conditions: 37° C., 24 or 48 hours
[21] = tested on: Brucella abortus; experiment: microbe, parasite or virus in culture; format: cell-based
[22] = tested on: Trichophyton mentagrophytes; experiment: Antimicrobial spectrum (MIC); format: cell-based; conditions: Sabouraud dextrose agar, 27° C., 48 hours
Excerpt: (§1) Medium and culture condition:

[23] = tested on: Rhodotorula glutinis; experiment: Antimicrobial spectrum (MIC); format: cell-based; conditions: Sabouraud dextrose agar, 27° C., 48 hours
Excerpt: as §1

[24] = tested on: Mucor mucedo; experiment: Antimicrobial spectrum (MIC); format: cell-based; conditions: Sabouraud dextrose agar, 27° C., 48 hours
Excerpt: as §1

[25] = tested on: Aspergillus oryzae; experiment: Antimicrobial spectrum (MIC); format: cell-based; conditions: Sabouraud dextrose agar, 27° C., 48 hours
Excerpt: as §1

[26] = tested on: Pencillium glaucum; experiment: Antimicrobial spectrum (MIC); format: cell-based; conditions: Sabouraud dextrose agar, 27° C., 48 hours
Excerpt: as §1

[27] = tested on: Saccharomyces cerevisiae; experiment: Antimicrobial spectrum (MIC); format: cell-based; conditions: Sabouraud dextrose agar, 27° C., 48 hours
Excerpt: as §1

[28] = tested on: Staphylococcus albus; experiment: Antimicrobial spectrum (MIC); format: cell-based; conditions: 1% glucose nutrient agar, 37° C., 24 or 48 hours
[29] = tested on: Aspergillus niger; experiment: Antimicrobial spectrum (MIC); conditions: Sabouraud dextrose agar, 27° C., 48 hours
[30] = tested on: Corynebacterium xerosis; experiment: Antimicrobial spectrum (MIC); format: cell-based; conditions: 1% glucose nutrient agar, 37° C., 24 or 48 hours
[31] = tested on: Candida albicans 7N; experiment: Antimicrobial spectrum (MIC); conditions: Sabouraud dextrose agar, 27° C., 48 hours
[32] = tested on: Staphylococcus aureus Smith; experiment: Antimicrobial spectrum (MIC); format: cell-based; conditions: 1% glucose nutrient agar, 37° C., 24 or 48 hours
[33] = tested on: mouse lymphoid leukemia P388; experiment: Effects on mouse lymphoid leukemia P388 in BDF1 mice; format: in vivo; conditions: for survival period of treated group over survival period of control group: i.p., 1×10^6 cells i.p., BDF1 mice; for increase of survival period: treatment 1-10 diseased days, 1×10^6 cells
Excerpt: The effects of saframycin S on mouse lymphoid leukemia P388 were studied with BDF1 mice.

[34] = tested on: Streptococcus pyogenes 090R; experiment: Antimicrobial spectrum (MIC); format: cell-based; conditions: blood agar, 37° C., 24 or 48 hours
[35] = tested on: Staphylococcus citreus; experiment: Antimicrobial spectrum (MIC); format: cell-based; conditions: 1% glucose nutrient agar, 37° C., 24 or 48 hours
[36] = tested on: male DDY strain mice; experiment: Acute toxicity LD50 in male DDY strain mice; format: in vivo, mouse; conditions: male DDY mice 18-20 g
[37] = tested on: gram-positive bacteria and some acidfast bacteria or gram-negative bacteria; experiment: Antibacterial activity, summary of spectrum; format: cell-based
[38] = tested on: various microorganisms; experiment: Growth inhibition of various microorganisms; format: cell-based; conditions: at low concentrations
[39] = tested on: S-180 solid cancer; experiment: Antitumor activity, S-180 solid cancer; format: in vivo; conditions: mouse tumor
[40] = tested on: RNA synthesis (Escherichia coli RNA polymerase, calf thymus DNA); experiment: RNA synthesis in in vitro reaction mixture; format: biochemical
[41] = tested on: DNA of transplantable cancer cells; experiment: Mechanism of action: reaction with DNA of transplantable cancer cells
[42] = tested on: melanoma B16; experiment: Antitumor activity, melanoma B16; format: in vivo; conditions: mouse tumor
[43] = tested on: leukemia P388; experiment: Antitumor activity, leukemia P388; format: in vivo; conditions: mouse tumor
[44] = tested on: tumor; conditions: Japanese Patent Lay Open No. 44098/1979; cited from earlier work
[45] = tested on: Ehrlich's ascites tumor; experiment: Antitumor activity, Ehrlich's ascites tumor; format: in vivo; conditions: mouse tumor
[46] = tested on: leukemia L1210; experiment: Antitumor activity, leukemia L1210; format: in vivo; conditions: mouse tumor
[47] = tested on: synthesis of ribosomal RNA and messenger RNA; experiment: Mechanism of action: synthesis of ribosomal RNA and messenger RNA; conditions: transplantable cancer cells
[48] = tested on: gastric cancer of man; experiment: Growth inhibition of gastric cancer of man heterotransplanted to the nude mouse; format: in vivo
[49] = 1% glucose nutrient agar, 37° C., 24 or 48 hours

## COC1=C(C)C(=O)C2=C(C1=O)[C@@H]1[C@@H]3CC4=C(C(=O)C(OC)=C(C)C4=O)[C@H](CNC(=O)C(C)=O)N3[C@@H](O)[C@H](C2)N1C [Saframycin S]
[1]
  MIC: 1.56 µg/mL (≈ 2.82 µM)
[2]
  MIC: 25.0 µg/mL (≈ 45.2 µM)
[3]; [49]
  MIC: 1.56 µg/mL (≈ 2.82 µM)
[4]
  MIC: 0.8 µg/mL (≈ 1.45 µM)
[5]
  MIC: 50.0 µg/mL (≈ 90.3 µM)
[6]; [49]
  MIC: 0.006 µg/mL (≈ 0.0108 µM)
[7]
  MIC: 25.0 µg/mL (≈ 45.2 µM)
[8]
  MIC: 50.0 µg/mL (≈ 90.3 µM)
[9]
  MIC: 100 µg/mL (≈ 181 µM)
[10]
  MIC: 0.05 µg/mL (≈ 0.0903 µM)
[11]
  MIC: 0.4 µg/mL (≈ 0.723 µM)
[12]
  activity against transplantable tumors: activity against transplantable tumors
[13]
  MIC: 1.56 µg/mL (≈ 2.82 µM)
[14]
  MIC: 0.01 µg/mL (≈ 0.0181 µM)
[15]
  MIC: 1.56 µg/mL (≈ 2.82 µM)
[16]; [49]
  MIC: 0.001 µg/mL (≈ 0.00181 µM)
[17]; compared with saframycin A
  biological activities relative to saframycin A: still more powerful biological activities in every point than saframycin A; also recorded: almost equal to that of saframycin A
[18]
  MIC: 100 µg/mL (≈ 181 µM)
[19]
  MIC: 0.025 µg/mL (≈ 0.0452 µM)
[20]
  MIC: 6.25 µg/mL (≈ 11.3 µM)
[21]; blood agar, 37° C., 24 or 48 hours
  MIC: 0.8 µg/mL (≈ 1.45 µM)
[22]
  MIC: 50 µg/mL (≈ 90.3 µM)
[23]
  MIC: 100 µg/mL (≈ 181 µM)
[24]
  MIC: 100 µg/mL (≈ 181 µM)
[25]
  MIC: 100 µg/mL (≈ 181 µM)
[26]
  MIC: 100 µg/mL (≈ 181 µM)
[27]
  MIC: 50 µg/mL (≈ 90.3 µM)
[28]
  MIC: 0.001 µg/mL (≈ 0.00181 µM)
[29]
  MIC: > 100 µg/mL
[30]
  MIC: 0.001 µg/mL (≈ 0.00181 µM)
[31]
  MIC: > 100 µg/mL
[32]
  MIC: 0.001 µg/mL (≈ 0.00181 µM)
[33]; 0.5 mg/kg daily for 10 days
  survival period of treated group over survival period of control group: 146.2%
[33]; 0.5 mg/kg/day
  increase of survival period: 46.2%
[33]; 0.75 mg/kg daily for 10 days
  survival period of treated group over survival period of control group: 157.7%
[33]; 0.75 mg/kg/day
  increase of survival period: 57.7%
[33]; 1.0 mg/kg daily for 10 days
  survival period of treated group over survival period of control group: 161.5%
[33]; 1.0 mg/kg/day
  increase of survival period: 61.5%
[33]; 1.5 mg/kg daily for 10 days
  survival period of treated group over survival period of control group: 182.7%
[33]; 1.5 mg/kg/day
  increase of survival period: 82.7%
[34]
  MIC: 0.05 µg/mL (≈ 0.0903 µM)
[35]
  MIC: 0.001 µg/mL (≈ 0.00181 µM)
[36]; intraperitoneal injection
  LD50: 2.5 mg/kg
[36]; intravenous injection
  LD50: 0.83 mg/kg
[37]
  antibacterial activity: antibacterial activities mainly against gram-positive bacteria; also recorded: antibacterial activity mainly against gram-positive bacteria and some acidfast bacteria or gram-negative bacteria such as Mycobacterium, Shigella dysenteriae Shiga and Brucella

## COC1=C(C)C(=O)C2=C(C1=O)C1C3CC4=C(C(=O)C(OC)=C(C)C4=O)C(CNC(=O)C(C)=O)N3C(C#N)C(C2)N1C (centres unmarked) [Saframycin A, reference compound]
[38]
  inhibition of growth of various microorganisms: effective in inhibiting the growth of various microorganisms at low concentrations
[39]
  effect on S-180 solid cancer: effective
[1]; Mycobacterium, SP.607, read-out: MIC
  MIC: 1.56 µg/mL (≈ 2.77 µM)
[3]; Shigella dysenteriae
  MIC: 1.56 µg/mL (≈ 2.77 µM)
[4]; Mycolicibacterium phlei, read-out: MIC
  MIC: 1.56 µg/mL (≈ 2.77 µM)
[40]; Escherichia coli RNA polymerase, calf thymus DNA, RNA precursor, no reducing agent
  inhibition of RNA synthesis in vitro: did not inhibit RNA synthesis
[40]; with dithiothreitol (DTT) and other reducing agent
  inhibition of RNA synthesis in vitro: RNA synthesis inhibition equivalent to in vivo effect was observed
[41]
  reaction with DNA, inhibition of template activity: specifically reacted with DNA of transplantable cancer cells to inhibit their template activity
[5]; Mycobacterium avium, read-out: MIC
  MIC: 100 µg/mL (≈ 178 µM)
[6]
  MIC: 0.006 µg/mL (≈ 0.0107 µM)
[42]
  effect on melanoma B16: effective
[43]
  effect on leukemia P388: effective
[9]; Pseudomonas aeruginosa, read-out: MIC
  MIC: 100 µg/mL (≈ 178 µM)
[10]; Streptococcus pyogenes, read-out: MIC
  MIC: 1.56 µg/mL (≈ 2.77 µM)
[44]
  antitumor effect: strong antitumor effect
[11]; Bacillus cereus, read-out: MIC
  MIC: 0.4 µg/mL (≈ 0.711 µM)
[13]; Enterococcus faecalis, read-out: MIC
  MIC: 1.56 µg/mL (≈ 2.77 µM)
[45]
  effect on Ehrlich's ascites tumor: effective
[15]; Klebsiella pneumoniae, read-out: MIC
  MIC: 1.56 µg/mL (≈ 2.77 µM)
[46]
  effect on leukemia L1210: effective
[16]; Corynebacterium
  MIC: 0.001 µg/mL (≈ 0.00178 µM)
[17]; among saframycins A-E
  biological activity among saframycins A-E: highest biological activity
[19]; Bacillus subtilis, PCI219, read-out: MIC
  MIC: 0.025 µg/mL (≈ 0.0444 µM)
[20]; Nocardia asteroides, read-out: MIC
  MIC: 50 µg/mL (≈ 88.9 µM)
[21]; Brucella abortus
  MIC: 1.56 µg/mL (≈ 2.77 µM)
[47]
  synthesis of ribosomal RNA and messenger RNA: prevented synthesis of ribosomal RNA and messenger RNA
[28]; Staphylococcus, read-out: MIC
  MIC: 0.006 µg/mL (≈ 0.0107 µM)
[30]; Corynebacterium xerosis, read-out: MIC
  MIC: 0.012 µg/mL (≈ 0.0213 µM)
[48]
  inhibition of growth of gastric cancer of man: effective in inhibiting the growth of gastric cancer of man
[32]; Staphylococcus aureus, read-out: MIC
  MIC: 0.025 µg/mL (≈ 0.0444 µM)
[34]; Streptococcus pyogenes, 090R, read-out: MIC
  MIC: 3 µg/mL (≈ 5.33 µM)
[35]; Staphylococcus, read-out: MIC
  MIC: 0.006 µg/mL (≈ 0.0107 µM)

Reference: patent publication US4372947A, “Antibiotic saframycin S and process for producing the same” (Arai; Tadashi, priority 1980, dated 1983)
